According to paper PMC4995097, “Talin-KANK1 interaction controls the recruitment of cortical microtubule stabilizing complexes to focal adhesions” (eLife, 2016):

How the values were obtained:
HA-KANK1 = assay: Streptavidin pull down of BioGFP-talin1 constructs with HA-KANK1, Western blot; format: binding; settings: HEK293T cells
Text: BioGFP-tagged KANK1 mutants were constructed using PCR and pBioGFP-C1 vector as previously described ([van der Vaart et al., 2013]). Rescue constructs for BioGFP-tagged KANK1 were either based on the version previously described ([van der Vaart et al., 2013]) or a version obtained by PCR-based mutagenesis of the sequence […] to […]. mCherry-tagged paxillin construct was made by replacing GFP from pQC-GPXN ([Bouchet et al., 2011]) by mCherry (pmCherry-C1, Clontech). TagRFP-tagged paxillin construct was made by PCR-based amplification and cloning in pTagRFP-T-C1 (kind gift from Y. Mimori-Kiyosue, Riken Institute, Japan). HA-tagged KANK1 construct was generated by cloning KANK1 coding sequence into pMT2-SM-HA (gift of C. Hoogenraad, Utrecht University, The Netherlands). pLVX-IRES-Neo (pLVIN) vectors was constructed by cloning the IRES-neomycin resistance cassette from the pQCXIN plasmid (Clontech) into the pLVX-IRES-Puro plasmid (Clontech). […]
Streptavidin-based pull down assays of biotinylated proteins expressed using pBioGFP-C1 constructs transfected in HEK293T cells was performed and analyzed as previously described ([van der Vaart et al., 2013]). […] For RP-nanoLC-MS/MS, samples were resuspended in 10% formic acid (FA) / 5% DMSO and was analyzed using a Proxeon Easy-nLC100 (Thermo Scientific) connected to an Orbitrap Q-Exactive mass spectrometer. […]

[1] = tested on: microtubule plus ends in HeLa cells; assay: Ratio of microtubule growth rate in the cell center and at the cell edge; format: cell-based, human; settings: depletion and rescue, EB3-mRFP
Experimental: nEB3-mRFP dynamics was recorded by 0.5 s interval time lapse TIRF imaging. Microtubule growth was measured using kymographs obtained from EB3-mRFP time lapse image series, plotted and presented as previously described ([van der Vaart et al., 2013]). Ratio of microtubule growth in cell center to periphery was obtained as values for individual cells. Microtubule growth trajectory angle to the cell edge was manually measured in ImageJ using tracks obtained by maximum intensity projection of EB3-mRFP image series.

## GFP-talin1-G1404L: GFP-tagged mouse talin1 with single point mutation G1404L
HA-KANK1
  interaction of talin1 constructs with KANK1 (in words): abrogated the interaction of full-length talin1 or its R7 fragment with full-length KANK1
[1]
  microtubule growth, fold slower at cell margin/edge than in cell center: 1.5 fold
